Data set [1] concerns the target human cyclin D1-CDK4 (Homo sapiens, UniProt P11802). In words: FlashPlate kinase assay, IC50 measurement, cyclin D1-CDK4. In kind it is biochemical. The note with it: Rb protein substrate, 1 μM ATP. As for the experimental part:
(§1) To determine inhibition of Cdk4, Cdk2 and Cdk1 activity, kinase assays were conducted using FlashPlate™ assays (NEN™-Life Science Products). FlashPlate assays were performed using recombinant human cyclin B-CDK1, human cyclin E-CDK2 or human cyclin D1-CDK4 complexes. GST-cyclinE (GST-cycE), CDK2, GST-cyclinB (GST-cycB), CDK1, GST-CDK4 and cyclin D1 (cycD1) cDNA clones in baculovirus vectors were provided by Dr. W. Harper at the Baylor College of Medicine, Houston, Tex. Proteins were co-expressed in High Five™ insect cells and the complex was purified on glutathione Sepharose resin (Pharmacia, Piscataway, N.J.) as previously described (Harper, J. W. et al. Cell 1993, 75, 805–816). A 6×-Histidine tagged truncated form of retinoblastoma (Rb) protein (amino acid 386–928) was used as the substrate for the cycD1-CDK4, cycB-CDK1 and the cycE-CDK2 assays (the expression plasmid was provided by Dr. Veronica Sullivan, Department of Molecular Virology, Roche Research Centre, Welwyn Garden City, United Kingdom). The Rb protein is a natural substrate for phosphorylation by CDK4, CDK2 and CDK1 (see Herwig and Strauss Eur. J. Biochem. Vol. 246 (1997) pp. 581–601 and the references cited therein).
(§2) The expression of the 62 Kd protein was under the control of an IPTG inducible promoter in an M15 E. coli strain. Cells were lysed by sonication and purification was carried out by binding lysates at pH 8.0 to a Ni-chelated agarose column pretreated with 1 mM imidazole. The resin was then washed several times with incrementally decreasing pH buffers to pH 6.0, and eluted with 500 mM imidazole. Eluted protein was dialysed against 20 mM HEPES pH 7.5, 30% glycerol, 200 mM NaCl, and 1 mM DTT. Purified Rb fusion protein stocks were quantitated for protein concentration, aliquoted, and stored at −70° C.
(§3) For all three kinase assays reported herein, 96-well FlashPlates were coated with Rb protein at 10 μg/ml, using 100 μl per well. Plates were incubated at 4° C. overnight or at room temperature for 3 hours on a shaker. To control for nonspecific phosphorylation, one row of wells was coated with 100 μl/well coating buffer (20 mM HEPES, 0.2 M NaCl). Plates were then washed twice with wash buffer (0.01% Tween 20 in phosphate-buffered saline). Compounds to be tested (“test compounds”) were added to the wells at 5× final concentration. Reactions were initiated by immediate addition of 40 μl reaction mix (25 mM HEPES, 20 mM MgCl2, 0.002% Tween 20, 2 mM DTT, 1 μM ATP, 4 nM ^33P-ATP) and a sufficient amount of enzyme to give counts that were at least 10-fold above background. Plates were incubated at room temperature on a shaker for 30 minutes. Plates were washed four times with the wash buffer, sealed, and counted on the TopCount scintillation counter (Packard Instrument Co., Downers Grove, Ill. The percent inhibition of Rb phosphorylation, which is a measure of the inhibition of CDK activity, was determined according to the following formula:
(§4) [formula] where “test compound” refers to the average counts per minute of the test duplicates, “nonspecific” refers to the average counts per minute when no CyclinD/Cdk4, etc., was added, and “total” refers to the average counts per minute when no compound was added. The IC50 value is the concentration of test compound that reduces by 50% the protein-kinase induced incorporation of the radiolabel under the test conditions described. B: Ki Measurement

Data set [2] deals with human cyclin B-CDK1 (Homo sapiens, UniProt P06493). Briefly: FlashPlate kinase assay, IC50 measurement, cyclin B-CDK1. In kind it is biochemical. The note with it: Rb protein substrate, 1 μM ATP. As for the experimental part:
as §1, §2, §3, §4

In data set [3] the target is human cyclin E-CDK2 (Homo sapiens, UniProt P24941). Briefly: FlashPlate kinase assay, IC50 measurement, cyclin E-CDK2. In kind it is biochemical. The method, then:
To determine inhibition of Cdk4, Cdk2 and Cdk1 activity, kinase assays were conducted using FlashPlate™ assays (NEN™-Life Science Products). FlashPlate assays were performed using recombinant human cyclin B-CDK1, human cyclin E-CDK2 or human cyclin D1-CDK4 complexes. GST-cyclinE (GST-cycE), CDK2, GST-cyclinB (GST-cycB), CDK1, GST-CDK4 and cyclin D1 (cycD1) cDNA clones in baculovirus vectors were provided by Dr. W. Harper at the Baylor College of Medicine, Houston, Tex.
as §2, §3
[formula] where “test compound” refers to the average counts per minute of the test duplicates, “nonspecific” refers to the average counts per minute when no CyclinD/Cdk4, etc., was added, and “total” refers to the average counts per minute when no compound was added. […] B: Ki Measurement

In data set [4] the test system is HCT116 cells. Briefly: Tetrazolium dye proliferation assay (MTT assay). In kind it is cell-based. Particulars: Homo sapiens, HCT-116; 90% inhibition of cell proliferation, HCT116 colorectal carcinoma cell line. As for the experimental part:
The cell line used was HCT116, a colorectal carcinoma cell line obtained from the American Type Cell Culture Collection (ATCC; Rockville, Md.). The cells were grown in McCoy's 5A medium supplemented with 10% FCS and L-glutamine.
Cells were plated at the appropriate seeding density to give logarithmic growth over the course of the assay in a 96-well tissue culture plate. Plates were incubated overnight at 37° C. in a humidified incubator with 5% CO2. The next day, test compounds were serially diluted to four times the final concentration in the appropriate medium containing 1.2% DMSO. One-fourth final volume of each dilution was added in duplicate to the plates containing cells. The same volume of 1.2% DMSO in medium was added to a row of “control wells” such that the final concentration of DMSO in each well was 0.3%. Wells to which no cells were added served as the “blank.” Wells to which no inhibitor was added served as “no inhibitor control.” The plates were) returned to the incubator, and at set time points (determined by their growth curves) plates were analyzed as described below.
3-(4,5-dimethylthiazole-2-yl)-2,5-diphenyl-2H-tetrazolium bromide (thiazolyl blue; MTT; Sigma) was added to each well to yield a final concentration of 1 mg/ml. Plates were returned to the incubator for 2.5–3 hours at 37° C. The MTT-containing medium was removed and the resulting formazan metabolite was solubilized in 100% ethanol with shaking for 15 minutes at room temperature. Absorbance readings were taken in a microtiter plate reader (Dynatech and Molecular Devices plate readers were used interchangeably) at a wavelength of 570 nm with a 650 nm reference. Percent inhibition (% INH) is calculated by subtracting the absorbance of the blank well from all wells, then subtracting the ratio of the average absorbance of each test duplicate (SAVE) by the average of the controls (CAVE) from 1.00. The final number is then multiplied by 100(% INH=(1.00−SAVE/CAVE)×100).
Background: Tetrazolium dyes change colour on reduction, which living cells bring about.

Setting [5] is: Rb protein substrate, 1 μM ATP, unit inferred, read-out: CDK2 IC50.
The mark [6] stands for this setting: Rb protein substrate, 1 μM ATP, read-out: CDK2 IC50.

Usually melting point stands for the temperature, or range, at which the solid turns liquid. As a reminder, the IC50 is the concentration that gives 50% inhibition. Broadly, the IC90 is the point of the concentration-response curve where the effect stands at 90%.

Molecules are shown by their SMILES. Read-outs that look alike come from different tables or passages of the source.

Chain of human cyclin D1-CDK4 (P11802 whole entry): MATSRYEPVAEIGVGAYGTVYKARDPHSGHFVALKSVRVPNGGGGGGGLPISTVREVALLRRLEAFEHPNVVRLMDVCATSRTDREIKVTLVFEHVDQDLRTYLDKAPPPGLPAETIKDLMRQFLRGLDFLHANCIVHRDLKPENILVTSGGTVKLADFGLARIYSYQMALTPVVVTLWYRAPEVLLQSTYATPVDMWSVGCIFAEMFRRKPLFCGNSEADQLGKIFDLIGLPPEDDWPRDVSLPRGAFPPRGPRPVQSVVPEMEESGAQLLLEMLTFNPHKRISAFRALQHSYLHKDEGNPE
Chain of human cyclin D1-CDK4 (P24385 whole entry partner): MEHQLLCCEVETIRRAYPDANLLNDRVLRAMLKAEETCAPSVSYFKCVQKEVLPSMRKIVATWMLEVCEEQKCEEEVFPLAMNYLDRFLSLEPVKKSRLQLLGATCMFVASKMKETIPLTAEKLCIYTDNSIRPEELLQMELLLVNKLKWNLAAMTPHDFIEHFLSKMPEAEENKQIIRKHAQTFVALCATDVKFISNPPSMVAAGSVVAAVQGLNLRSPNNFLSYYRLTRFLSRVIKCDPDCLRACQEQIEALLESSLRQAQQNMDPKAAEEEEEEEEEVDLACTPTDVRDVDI
Chain of human cyclin B-CDK1 (P06493 whole entry): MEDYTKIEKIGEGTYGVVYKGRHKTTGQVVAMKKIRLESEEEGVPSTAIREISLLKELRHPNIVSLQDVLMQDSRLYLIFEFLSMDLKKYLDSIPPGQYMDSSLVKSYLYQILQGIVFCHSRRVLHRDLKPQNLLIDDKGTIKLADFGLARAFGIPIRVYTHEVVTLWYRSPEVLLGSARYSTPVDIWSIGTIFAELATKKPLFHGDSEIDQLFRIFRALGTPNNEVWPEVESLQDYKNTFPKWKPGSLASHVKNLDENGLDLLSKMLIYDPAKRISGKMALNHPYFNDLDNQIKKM
Chain of human cyclin B-CDK1 (P14635 whole entry partner): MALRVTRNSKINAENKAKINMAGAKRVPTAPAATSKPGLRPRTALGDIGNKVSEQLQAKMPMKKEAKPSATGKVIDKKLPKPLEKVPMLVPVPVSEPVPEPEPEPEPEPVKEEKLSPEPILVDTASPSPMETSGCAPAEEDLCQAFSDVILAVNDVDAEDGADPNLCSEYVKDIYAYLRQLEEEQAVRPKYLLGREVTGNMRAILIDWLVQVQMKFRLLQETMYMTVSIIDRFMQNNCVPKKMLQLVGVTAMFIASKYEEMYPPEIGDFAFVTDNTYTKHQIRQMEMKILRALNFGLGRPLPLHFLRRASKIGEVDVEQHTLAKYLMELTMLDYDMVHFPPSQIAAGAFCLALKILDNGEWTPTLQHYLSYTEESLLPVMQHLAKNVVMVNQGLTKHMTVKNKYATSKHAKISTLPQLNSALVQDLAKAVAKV

In turn, `CCS(=O)(=O)c1ncc(C(=O)c2cc(F)ccc2OC)c(N)n1` [Example 48, (4-Amino-2-ethanesulfonyl-pyrimidin-5-yl)-(5-fluoro-2-methoxy-phenyl)-methanone] showed a melting point of 174 to 175 °C.
`COc1ccc(F)cc1C(=O)c1cnc(NC2CCN(C(=O)OC(C)(C)C)CC2)nc1N` [Example 164, 4-[4-Amino-5-(5-fluoro-2-methoxy-benzoyl)-pyrimidin-2-ylamino]-piperidine-1-carboxylic acid tert-butyl ester]: the melting point is 122 to 124 °C (dec.).
`COc1cc(F)c(F)c(F)c1C(=O)c1cnc(NC2CCN(C(C)=O)CC2)nc1N` [Example 204, 1-[4-[4Amino-5-(2,3,4-trifluoro-6-methoxy-benzoyl)-pyrimidin-2-ylamino]-piperidin-1-yl]-ethanone]: the IC50 in data set [1] came to 0.01 µM; in data set [2] it was 0.128 µM; in data set [3] (setting [5]), 0.051 µM. This compound also displayed an IC90 in data set [4] of 2.4 µM.
Turning to `COc1ccc(F)c(F)c1C(=O)c1cnc(NC2CCN(C=O)CC2)nc1N` [Example 284, 4-[4-Amino-5-(2,3-difluoro-6-methoxy-benzoyl)-pyrimidin-2-ylamino]-piperidine-1-carbaldehyde], the melting point is 263 °C (dec.).
Consider `COc1ccc(F)c(F)c1C(=O)c1cnc(NC2CCN(S(=O)(=O)CCCN3CCN(C)CC3)CC2)nc1N` [Example 228, (4-Amino-2-[1-[3-(4-methyl-piperazin-1-yl)-propan-1-sulfonyl]-piperidin-4-ylamino]-pyrimidin-5-yl)-(2,3-difluoro-6-methoxy-phenyl)-methanone], for which the IC50 stood at 0.001 µM in data set [1], 0.039 µM in data set [2] and 0.017 µM in data set [3] (setting [5]). In data set [4], this compound showed an IC90 of 0.274 µM.
For `COc1cc(F)c(F)c(F)c1C(=O)c1cnc(NC2CCN(S(C)(=O)=O)CC2)nc1N` [Example 207, [4-Amino-2-(1-methanesulfonyl-piperidin-4-ylamino)-pyrimidin-5-y]-(2,3,4-trifluoro-6-methoxy-phenyl)-methanone], the concentration for half-maximal inhibition (IC50) in data set [1] was found to be 0.001 µM; in data set [2], 0.005 µM; in data set [3] it was 0.002 µM. The IC90 in data set [4] came out at 0.63 µM.
Consider `COc1ccc(F)c(F)c1C(O)c1cnc(Cl)nc1Cl` (racemic) [Example 287, rac-(2,4-Dichloro-pyrimidin-5-yl)-(2,3-difluoro-6-methoxy-phenyl)-methanol], for which the melting point was in the range of 99 to 101 °C.
On the same count and under the same terms, the result for `COc1ccc(F)c(F)c1C(=O)c1cnc(NC2CCN(S(=O)(=O)NC(C)=O)CC2)nc1N` [Example 286, 4-[4-Amino-5-(2,3-difluoro-6-methoxy-benzoyl)-pyrimidin-2-ylamino]-piperidine-1-sulfonic acid acetyl-amide] reads 153 °C (dec.).
Take `COc1ccc(F)c(F)c1C(=O)c1cnc(N[C@H]2CC[C@H](NCCO)CC2)nc1N` [Example 290, Trans-[4-Amino-2-[4-(2-hydroxy-ethylamino)-cyclohexylamino]-pyrimidin-5-yl}-(2,3-difluoro-6-methoxy-phenyl)-methanone]: the concentration for half-maximal inhibition (IC50) in data set [1] came out at 0.02 µM; in data set [2], 0.018 µM; in data set [3] (setting [6]), 0.005 µM. The compound further showed an IC90 in data set [4] of 0.179 µM.
`CC[S+]([O-])c1ncc(C(=O)c2cc(F)ccc2OC)c(N)n1` (stereo not shown) [Example 163, (4-Amino-2-ethanesulfinyl-pyrimidin-5-yl)-(5-fluoro-2-methoxy-phenyl)-methanone] gave a melting point of 150 to 152 °C.
Still for that read-out and setting: the result for `COc1ccc(F)c(F)c1C(=O)c1cnc(Cl)nc1N` [Example 289, (4-Amino-2-chloro-pyrimidin-5-yl)-(2,3-difluoro-6-methoxy-phenyl)-methanone] reads 238 to 239 °C (dec.).
With `COc1ccc(F)c(F)c1C(=O)c1cnc(N[C@H]2CC[C@H](N3CCCS3(=O)=O)CC2)nc1N` [Example 298, Trans-[4-Amino-2-[4-(1,1-dioxo-1λ^6-isothiazolidin-2-yl)-cyclohexylamino]-pyrimidin-5-yl]-(2,3-difluoro-6-methoxy-phenyl)-methanone], the IC50 is 0.005 µM in data set [1], 0.028 µM in data set [2] and 0.008 µM in data set [3] (setting [6]). Also, in data set [4], it took 0.32 µM to reach the 90% level (IC90).
`CS(=O)(=O)N1CCC(Nc2ncc(C(=O)c3ccccc3)c(N)n2)CC1` [Example 283, [4-Amino-2-(1-methanesulfonyl-piperidin-4-ylamino)-pyrimidin-5-yl]-phenyl-methanone]: the melting point was in the range of 249 to 250 °C.
Turning to `COc1ccccc1C(=O)c1cnc(Nc2ccc(N3CCN(C(C)C)CC3)cc2)nc1N` [Example 8, [4-Amino-2-[4-(4-isopropyl-piperazin-1-yl)-phenylamino]-pyrimidin-5-yl]-(2-methoxy-phenyl)-methanone], the IC50 in data set [1] stood at 0.171 µM; in data set [2] it was 3.56 µM; in data set [3] (setting [6]), 10 µM. Moreover, the IC90 in data set [4] was determined as 20.9 µM.
`COc1ccc(F)c(F)c1C(=O)c1cnc(NC2CCN(S(N)(=O)=O)CC2)nc1N` [Example 285, 4-[4-Amino-5-(2,3-difluoro-6-methoxy-benzoyl)-pyrimidin-2-ylamino]-piperidine-1-sulfonic acid amide] yielded a melting point of 217 to 218 °C.
Still for that read-out and setting: then `COc1ccc(F)c(F)c1C(=O)c1cnc(Cl)nc1Cl` [Example 288, (2,4-Dichloro-pyrimidin-5-yl)-(2,3-difluoro-6-methoxy-phenyl)-methanone], with 137 to 139 °C.

These data come from patent publication US7157455B2, “4-Aminopyrimidine-5-one derivatives” (Hoffmann-La Roche Inc., priority 2003, dated 2007).
